This note sets out measurements from patent publication US10640533B2, “Epoxyketone compounds for enzyme inhibition” (CENTRAX INTERNATIONAL, INC., priority 2014, dated 2020).

The target of data set [1] is 20S Immunoproteasome peptidylglutamyl peptide hydrolyzing (PGPH) activity (Homo sapiens (Human), UniProt P28065+P40306). In words: 20S immunoproteasome PGPH activity inhibition, fluorogenic substrate Z-Leu-Leu-Glu-AMC. The format is biochemical. To be noted: purified human 20S proteasome, room temperature, one hour. The protocol: (§1) Inhibition of the 20S proteasome can be determined by methods and assays known in the art, for example, as disclosed by Stein et al., Biochemistry (1996), 35, 3899-3908; by Lightcap et al., Clinical Chemistry, 2000, 46, 673-683; by Kisselev et al., Journal of Biological Chemistry. (2006), 281, 8582-8590 and in U.S. application Ser. No. 09/569,748. The chymotrypsin-like (CT-L), peptidylglutamyl peptide hydrolyzing (PGPH) and trypsin-like (T-L) activities of the 20S proteasome are measured with a fluorogenic substrate assay method using succinyl-Leu-Leu-Val-Tyr-AMC, Z-Leu-Leu-Glu-AMC and Boc-Leu-Arg-Arg-AMC, respectively, as the substrates in an assay buffer. The free fluorophore 7-Amino-4-methylcoumarin (AMC) after cleavage from the substrates is quantified using a fluorometer and activity of CT-L, PGPH and T-L of 20S proteasome is determined.
(§2) Inhibition of the chymotrypsin-like (CT-L), peptidylglutamyl peptide hydrolyzing activity (PGPH), and trypsin-like (T-L) activities of the 20S proteasome in enzymatic assays were determined using succinyl-Leu-Leu-Val-Tyr-AMC (10 μmol/L), Z-Leu-Leu-Glu-AMC (10 μmol/L) and Boc-Leu-Arg-Arg-AMC (50 μmol/L), respectively, as the substrates with purified human 20S proteasome at 2, 4 and 8 nmol/L, respectively, in the assay buffer containing 25 mM HEPES (pH7.5), 0.5 mM EDTA, 0.002% sodium dodecyl sulfate (SDS) and 0.05% NP-40. Stock solutions of the 20S proteasome inhibitors disclosed herein were prepared in dimethyl sulfoxide (DMSO) and the final DMSO concentration in the assay mixture was 1%. Reaction was conducted at room temperature for one hour. Proteasome activity was measured based on detection of the fluorophore 7-Amino-4-methylcoumarin (AMC) after cleavage from the substrates with a plate-based spectrofluorometer.

Data set [2] concerns the target 20S Immunoproteasome trypsin-like (T-L) activity (Homo sapiens (Human), UniProt P40306+P49720). In words: 20S immunoproteasome T-L activity inhibition, fluorogenic substrate Boc-Leu-Arg-Arg-AMC. Format: biochemical. To be noted: purified human 20S proteasome, room temperature, one hour. The protocol:
as §1, §2

Data set [3] addresses Constitutive 20S proteasome trypsin-like (T-L) activity (Homo sapiens (Human), UniProt P49720+Q99436). Description: Constitutive 20S proteasome T-L activity inhibition, fluorogenic substrate Boc-Leu-Arg-Arg-AMC. The format is biochemical. The protocol:
as §1, §2

Data set [4] concerns the target Constitutive 20S proteasome chymotrypsin-like (CT-L) activity (Homo sapiens (Human), UniProt P20618+P28074). In words: Constitutive 20S proteasome CT-L activity inhibition, fluorogenic substrate succinyl-Leu-Leu-Val-Tyr-AMC. The format is biochemical. The protocol: as §1, §2
Data set [5] in a line: Aqueous solubility of the compounds. Format: physicochemical. To be noted: 50 mM citrate buffer, pH 4, aqueous buffer, thermodynamic from solid, 50 mM citrate pH4.0, 25° C. The protocol: To determine the solubility of the compounds, 1-5 mg of a compound was weighed into a vial. 1 mL of aqueous buffer (50 mM citrate at pH4.0) was added. The vial was shaken at 25° C. for 24 hours and then centrifuged for 10 min at 10000 rpm. The supernatant was filtered through a 0.45 μm membrane filter and analyzed for the concentration of the compound. In certain embodiments, the aqueous solubility of the compounds is described herein in Table 1.

For data set [6], the target named is Constitutive 20S proteasome peptidylglutamyl peptide hydrolyzing (PGPH) activity (Homo sapiens (Human), UniProt P28072+Q99436). Description: Constitutive 20S proteasome PGPH activity inhibition, fluorogenic substrate Z-Leu-Leu-Glu-AMC. Format: biochemical. To be noted: purified human 20S proteasome, room temperature, one hour. The procedure: as §1, §2
Data set [7] concerns the target 20S Immunoproteasome chymotrypsin-like (CT-L) activity (Homo sapiens (Human), UniProt P20618+P28062). Description: 20S immunoproteasome CT-L activity inhibition, fluorogenic substrate succinyl-Leu-Leu-Val-Tyr-AMC. To be noted: purified human 20S proteasome, room temperature, one hour. The format is biochemical. The procedure: as §1, §2
Where [8] appears, read: purified human 20S proteasome, room temperature, one hour, read-out: Proteasome inhibition IC50 (nM) Constitutive 20S proteasome T-L.
Where [9] appears, read: form of 20S proteasome not stated, 'below about'.
Setting [10] is: purified human 20S proteasome, room temperature, one hour, read-out: Proteasome inhibition IC50 (nM) Constitutive 20S proteasome CT-L.

In brackets after ≈: the same amount, converted by molar mass. Read-outs that look alike come from different tables or passages of the source.

For orientation: solubility means the concentration that dissolves in the medium under given conditions.

Regarding `Cc1ncc(C(=O)N[C@@H](CCc2ccccc2)C(=O)N[C@@H](Cc2ccncc2)C(=O)N[C@@H](CC(C)C)C(=O)[C@@]2(C)CO2)s1` [CX13-137], the IC50 in data set [1] was over 20000 nM; in data set [2], 5860 nM; in data set [3] (setting [8]), 11900 nM; in data set [4] (setting [9]), under 50 nM; in data set [4] (setting [10]) it was 13.5 nM; in data set [6] it was over 20000 nM. The compound also returned an IC50 in data set [7] of 60.4 nM. The solubility at 24 h in data set [5] came to 910 µg/mL (≈ 1500 µM).
For the compound `COC[C@H](NC(=O)[C@H](CCc1ccccc1)NC(=O)Cc1ccc(CN2CCOCC2)cc1)C(=O)N[C@@H](CC(C)C)C(=O)[C@@]1(C)CO1` [CX13-606], the IC50 in data set [1] was over 20000 nM; in data set [2], 186 nM; in data set [3] (form of 20S proteasome not stated, 'below about', read-out: concentration showing inhibition of T-L activity of the 20S proteasome), under 500 nM; in data set [3] (setting [8]), 297 nM; in data set [4] (setting [9]) it was under 10 nM; in data set [4] (setting [10]), 6.1 nM. The IC50 in data set [6] is over 20000 nM; in data set [7] it was 59.3 nM. For the same compound, in data set [5], the solubility at 24 h was 3730 µg/mL (≈ 5730 µM).
For `COC[C@H](NC(=O)[C@H](CCc1ccccc1)NC(=O)c1cc(CN2CCOCC2)on1)C(=O)N[C@@H](CC(C)C)C(=O)[C@@]1(C)CO1` [CX13-601], the IC50 in data set [1] is over 20000 nM; in data set [2], over 20000 nM; in data set [3] (setting [8]), over 20000 nM; in data set [4] (setting [9]), under 50 nM; in data set [4] (setting [10]) it was 16 nM; in data set [6] it was over 20000 nM. This compound also showed an IC50 in data set [7] of 31.7 nM. Moreover, the solubility at 24 h in data set [5] was determined as 480 µg/mL (≈ 765 µM).
Take `CC(C)C[C@H](NC(=O)[C@H](CCc1ccccc1)NC(=O)CN1CCOCC1)C(=O)N[C@@H](Cc1ccncc1)C(=O)[C@@]1(C)CO1` [CX13-109]: the IC50 is over 20000 nM in data set [1]; over 20000 nM in data set [2]; over 20000 nM in data set [3] (setting [8]); over 500 nM in data set [4] (setting [10]); over 20000 nM in data set [6]; over 500 nM in data set [7]. In addition, in data set [5], the solubility at 24 h worked out at 3490 µg/mL (≈ 5740 µM).
For `CC(C)C[C@H](NC(=O)[C@H](CCc1ccccc1)NC(=O)CN1CCOCC1)C(=O)N[C@@H](Cc1ccccc1)C(=O)[C@@]1(C)CO1` [CX13-107], the IC50 in data set [1] is over 20000 nM; in data set [2], 6220 nM; in data set [3] (setting [8]), 9950 nM; in data set [4] (setting [9]), under 5 nM; in data set [4] (setting [10]), 4.74 nM; in data set [6], over 20000 nM. The IC50 in data set [7] was 5.1 nM. Moreover, the solubility at 24 h in data set [5] stood at 83 µg/mL (≈ 137 µM).
As for `CC(C)C[C@H](NC(=O)[C@H](CCc1ccccc1)NC(=O)c1cc(CN2CCOCC2)on1)C(=O)N[C@@H](Cc1ccncc1)C(=O)[C@@]1(C)CO1` [CX13-104], the IC50 in data set [1] was over 20000 nM; in data set [2], over 20000 nM; in data set [3] (setting [8]), over 20000 nM; in data set [4] (setting [9]) it was under 50 nM; in data set [4] (setting [10]), 33.3 nM; in data set [6], over 20000 nM. In data set [7], this compound returned an IC50 of 33.6 nM. In data set [5], this compound had a solubility at 24 h of 1440 µg/mL (≈ 2130 µM).
Turning to `CC(C)C[C@H](NC(=O)[C@H](Cc1ccccc1)NC(=O)[C@H](CCc1ccccc1)NC(=O)c1cc(CN2CCOCC2)on1)C(=O)[C@@]1(C)CO1` [CX13-600], the IC50 in data set [1] was over 20000 nM; in data set [2] it was 19900 nM; in data set [3] (setting [8]), over 20000 nM; in data set [4] (setting [9]) it was under 5 nM; in data set [4] (setting [10]), 4.28 nM; in data set [6], over 20000 nM. In addition, in data set [7], the IC50 came to 7.41 nM. The compound further returned a solubility at 24 h in data set [5] of 20 µg/mL (≈ 29.7 µM).
As for `COC[C@H](NC(=O)[C@H](CCc1ccccc1)NC(=O)c1cnc(C)s1)C(=O)N[C@@H](Cc1ccccc1)C(=O)[C@@]1(C)CO1` [CX13-705], the IC50 is over 20000 nM in data set [1]; over 20000 nM in data set [2]; 15800 nM in data set [3] (setting [8]); under 10 nM in data set [4] (setting [9]); 9.75 nM in data set [4] (setting [10]); over 20000 nM in data set [6]. Moreover, the IC50 in data set [7] amounted to 15.3 nM. The solubility at 24 h in data set [5] stood at 20 µg/mL (≈ 33.7 µM).
Regarding `COC[C@H](NC(=O)c1cnc(C)s1)C(=O)N[C@@H](COC)C(=O)N[C@@H](Cc1ccccc1)C(=O)[C@@]1(C)CO1` [CX13-709], the solubility at 24 h in data set [5] amounted to 570 µg/mL (≈ 1070 µM).
